Experimental data: patent US20260014134A1, “COMPOSITION FOR TOPICAL DERMATOLOGICAL DELIVERY” (Limeway Pharma Design Limited, priority 2020, published 2026)
Values joined by “and” are separate entries in the source; they are usually repeats but may differ in a detail not shown here. Equal values may be shown once. Read-outs that look alike come from different tables or passages of the source.

Key:
[1] = Solubility of diffusion coefficient enhancers in propylene glycol and caprylyl methicone; assay type: physicochemical; conditions: 23-25° C.
Text: As described previously, diffusion coefficient-enhancing excipients (DC enhancers) commonly comprise alcohol, acid or ester derivatives of C8-C22 hydrocarbons.
Conversely, lower carbon chain length acids and alcohols such as C8 and C10 alcohols and C8 and C10 acids may be considered to be far too soluble in hydrocarbyl methyl siloxanes including caprylyl methicone, such that their performance as diffusion coefficient-enhancing excipients would be adversely affected. Similarly, medium chain (for instance C14-C16) isopropyl esters are far too soluble in hydrocarbyl methyl siloxanes such as caprylyl methicone to allow performance as DC enhancers. For both of these classes of DC enhancer, up to 50% DC enhancer would be required to be at or near saturation in the non-volatile residual phase. In contrast, the C12-C14 acids and C14 alcohol have appropriate solubility in caprylyl methicone.
As an example of the outline design of a simple co-enhancer system comprising propylene glycol, and, for example, a C14 alcohol diffusion coefficient enhancer with caprylyl methicone, we might first consider that the concentration of propylene glycol and caprylyl methicone in the final composition (otherwise consisting of non-solvents) to be 25% of each. On this basis, the total amount of C14 alcohol to saturate both of these phases would be 2.44%/4+2.30%/4=1.185%, approximately 1.2%. […]

[2] = cited from earlier work
[3] = biological target: T1, PARP-1 (Homo sapiens, UniProt P09874); assay: PARP-1 inhibition in vitro (Park J, 2010); assay type: biochemical
T1 sequence (P09874 whole entry, species assumed): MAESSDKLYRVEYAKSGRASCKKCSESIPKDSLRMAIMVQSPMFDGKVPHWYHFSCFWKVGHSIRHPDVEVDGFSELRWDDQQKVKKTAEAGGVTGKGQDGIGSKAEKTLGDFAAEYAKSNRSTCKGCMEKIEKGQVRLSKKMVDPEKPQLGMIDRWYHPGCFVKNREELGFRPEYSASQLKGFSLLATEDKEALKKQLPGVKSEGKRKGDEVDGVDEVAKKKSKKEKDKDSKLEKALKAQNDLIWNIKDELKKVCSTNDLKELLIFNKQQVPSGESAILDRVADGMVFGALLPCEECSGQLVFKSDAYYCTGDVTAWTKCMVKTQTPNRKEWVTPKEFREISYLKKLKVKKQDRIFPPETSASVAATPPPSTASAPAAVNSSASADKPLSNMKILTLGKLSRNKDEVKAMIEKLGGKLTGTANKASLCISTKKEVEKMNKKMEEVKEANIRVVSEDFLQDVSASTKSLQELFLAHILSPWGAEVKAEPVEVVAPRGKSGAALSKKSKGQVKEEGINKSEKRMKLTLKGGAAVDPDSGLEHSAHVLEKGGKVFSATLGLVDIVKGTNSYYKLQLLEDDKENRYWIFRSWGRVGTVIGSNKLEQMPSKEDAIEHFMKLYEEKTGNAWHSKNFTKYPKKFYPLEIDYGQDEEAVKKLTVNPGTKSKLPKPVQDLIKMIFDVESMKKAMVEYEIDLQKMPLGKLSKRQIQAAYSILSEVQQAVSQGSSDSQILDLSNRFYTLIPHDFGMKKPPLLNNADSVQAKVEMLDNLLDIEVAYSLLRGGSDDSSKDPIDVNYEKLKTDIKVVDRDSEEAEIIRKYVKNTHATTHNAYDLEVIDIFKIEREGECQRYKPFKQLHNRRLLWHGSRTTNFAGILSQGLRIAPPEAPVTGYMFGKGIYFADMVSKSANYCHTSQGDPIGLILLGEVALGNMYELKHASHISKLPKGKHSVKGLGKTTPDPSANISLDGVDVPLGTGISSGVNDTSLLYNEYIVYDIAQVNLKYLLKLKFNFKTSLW

[4] = cited from earlier work; remark: listed apart in the source
[5] = system: human keratinocytes; conditions: cited from earlier work
[6] = biological target: T1, PARP-1; conditions: NAM 50 μM; cited from earlier work
[7] = system: melanosome transfer from melanocytes to keratinocytes; conditions: cited from earlier work
[8] = system: IL-1 beta, IL-6, IL-8 and TNF alpha; conditions: endotoxin-induced model; cited from earlier work
[9] = system: IL-8; conditions: keratinocytes; cited from earlier work
[10] = system: IL-6; conditions: NAM at 500 μm, the only dose studied; cited from earlier work
[11] = system: actinic keratoses; conditions: high oral dose, placebo-controlled; cited from earlier work
[12] = system: non-melanoma human skin cancers; conditions: cited from earlier work
[13] = system: AKs in transplant recipients; conditions: cited from earlier work
[14] = system: bullous pemphigoid; conditions: oral 2 g/day with -cycline antibiotics; cited from earlier work
[15] = system: women with symmetrical pigmentation; conditions: 5% and 2% NAM moisturizer; cited from earlier work
[16] = oral dosage; cited from earlier work
[17] = system: patients with mild-moderate psoriasis; conditions: end of 12 weeks; cited from earlier work
[18] = Saturated solubility of corticosteroids in liquid silicones; assay type: physicochemical; conditions: including caprylyl methicone
[19] = system: murine flank skin; conditions: 10% PHA applied to murine flank skin; cited from earlier work
[20] = system: human SC; conditions: 5% PHA in propylene glycol/myrystyl alcohol co-enhancer non-silicone cream; up to; cited from earlier work
[21] = system: acute radiation dermatitis; conditions: topical cream; cited from earlier work
[22] = system: melasma; conditions: oral, over 12 weeks; cited from earlier work

For `CCCCCCCCCCCCCCO` [C14 alcohol, myristyl alcohol], the “solubility of C14 alcohol in caprylyl methicone (amount to saturate)” value ([1]; in caprylyl methicone) is given as 2.30%, the “solubility of C14 alcohol in propylene glycol (amount to saturate)” value ([1]; in propylene glycol) is given as 2.44% and the “logP O/W” value [2] is given as > 4.00.
In the case of `NC(=O)c1cccnc1` [NAM, nicotinamide], the “concentration predicted to be required for significant PARP-1 inhibition” value [3] is given as 50 to 100 µM, the pKa [4] is given as ~3.5 and 3.5 and the “ceramide biosynthesis, % of maximum response” value ([5]; NAM 1-10 μM) is given as 75%-100%. For the same molecule, the “concentration at maximum of ceramide synthesis dose response” value ([5]; in vitro) was ~10 µM, the “increase in biosynthesis of ceramides and other stratum corneum lipids” value ([5]; up to) was “up to 5 fold” and the PARP-1 inhibition [6] was 66%. For the same molecule, the “inhibition of melanosome transfer” value ([7]; 1.0 mmolL^−1 (1 mM) NAM, coculture model) was 35-68%, the “inhibition of melanosome transfer” value ([7]; NAM 10 μM, after 3 days of treatment) was 14% and the “concentration required for significant effects on proinflammatory cytokines” value [8] was 2,000 μM. The “concentration required to significantly inhibit P. acnes-induced IL-8 mRNA production” value [9] was 5.0 ug/ml and ~40 μM, the “reduction in IL-6 compared to untreated control” value [10] was 88% and the “effect on actinic keratoses” value [11] was “significantly reduced actinic keratoses”. For the same molecule, the “peritumoral and tumour infiltrating CD4+ and CD8+ lymphocytes versus placebo” value ([12]; melanomas arising on treatment) was “statistically significantly increased”, the “rates of new non-melanoma skin cancers and actinic keratoses” value ([12]; oral) was “safe and effective in reducing the rates” and the “patients with AKs significantly decreased in size” value ([13]; after six months, 18/19 patients) was 88%. For the same molecule, the “patients with complete clinical regression” value ([13]; seven patients) was 42%, the “time to total remission of bullous pemphigoid” value [14] was 6-8 weeks and the “reduction in hyperpigmented lesions” value [15] was “dose-dependent reduction in hyperpigmented lesions”. The “half-life of decrease of peak concentrations in plasma and skin” value [16] was “approximately 90 minutes”.
In the case of `C=C1/C(=C\C=C2/CCC[C@]3(C)[C@@H]([C@H](C)/C=C/[C@@H](O)C4CC4)CC[C@@H]23)C[C@@H](O)C[C@@H]1O` [calcipotriol], the “reduction of PASI score” value [17] is given as 77.8±9.7%.
For `CCC(=O)O[C@]1(C(=O)SCF)[C@H](C)C[C@H]2[C@@H]3C[C@H](F)C4=CC(=O)C=C[C@]4(C)[C@@]3(F)[C@@H](O)C[C@@]21C` [fluticasone propionate], the “saturated solubility in a range of liquid silicones” value [18] was “appropriately low”.
For `O=C1O[C@H](CO)[C@@H](O)[C@H](O)[C@H]1O` [gluconolactone], the “logP O/W” value [2] is listed as −4.8.
For `O=C(O)[C@H](O)[C@@H](O)[C@H](O[C@@H]1O[C@H](CO)[C@H](O)[C@H](O)[C@H]1O)[C@H](O)CO` [lactobionic acid], the “logP O/W” value [2] is given as −4.8, the “decrease in pH at all SC depths” value [19] is given as 0.5-1.0 pH units and the “decrease in human SC pH in vivo” value [20] is given as “up to 1.5 pH units”.
In the case of `C[C@@H]1C[C@H]2[C@@H]3CCC4=CC(=O)C=C[C@]4(C)[C@@]3(Cl)[C@@H](O)C[C@]2(C)[C@@]1(OC(=O)c1ccco1)C(=O)CCl` [mometasone furoate], the “saturated solubility in a range of liquid silicones” value [18] is given as “appropriately low” and the “reduction of acute radiation dermatitis versus emollient cream” value [21] is given as “significantly more effective than emollient cream alone”.
For `NC[C@H]1CC[C@H](C(=O)O)CC1` [tranexamic acid], the “reduction in melasma (mMASI, MASI) scores” value [22] is given as “approximately 50%”.
